As a reminder, the ED50 is the midpoint of the dose-response relation.

We go through twelve compounds from patent US8470845B2, “Analgesic and methods of treating pain” (Toray Industries, Inc., priority 2004, dated 2013).

Structures can show the parent of a compound that is named as a salt.

In the first assay the test system is male ddY mouse. Briefly: Analgesic activity test by mouse acetic acid writhing method. The format is in vivo. The conditions noted are these: Mus musculus, subcutaneous, 15 minutes before i.p. 0.6% acetic acid; dosage to halve the number of writhing response; read-out: ED50. How it is done:
To each male ddY mouse, each test compound or the vehicle was subcutaneously administered in an administration volume of 0.1 mL/10 g body weight. Fifteen minutes later, 0.1 mL/10 g body weight of aqueous 0.6% (v/v) acetic acid solution was intraperitoneally administered. From 10 minutes after the administration of the acetic acid solution, the number of writhing response (i.e., the behavior to bend the body backward and/or twist the body) during 10 minutes was counted, and the analgesic activity was evaluated based on the number of writhing response. […] 10% Aqueous dimethylsulfoxide (DMSO) was used as a vehicle for test compounds 1, 2, 3, 4, 5, 6, 7, 8, 9, 10, 11, 12, 13, 14, 15, 16, 17, 18, 19, 20, 21 and 22. 0.1% Citric acid/aqueous 5% xylitol was used as a vehicle for test compounds 10f.
As for `C=CCN1CC[C@]23c4c5ccc(O)c4O[C@H]2[C@@H](N2C(=O)c4ccccc4C2=O)CC[C@@]3(O)[C@H]1C5` [Compound 9, N-(17-allyl-4,5α-epoxy-3,14-dihydroxymorphinan-6α-yl)-phthalimide.tartaric acid salt], the ED50 was determined as 0.14 mg/kg.

In the case of `O=C1CCC(=O)N1[C@@H]1CC[C@@]2(O)[C@H]3Cc4ccc(O)c5c4[C@@]2(CCN3CC2CC2)[C@H]1O5` [Compound 21, N-(17-cyclopropylmethyl-4,5α-epoxy-3,14-dihydroxy-morphinan-6β-yl)-succinic imide.tartaric acid salt], the ED50 came out at 3.37 mg/kg.

For `CCC/C=C1\CC(=O)N([C@@H]2CC[C@@]3(O)[C@H]4Cc5ccc(O)c6c5[C@@]3(CCN4CC3CC3)[C@H]2O6)C1=O` [Compound 6, N-(17-cyclopropylmethyl-4,5α-epoxy-3,14-dihydroxy-morphinan-6β-yl)-2-butylidene succinic imide.tartaric acid salt], the ED50 came out at 0.48 mg/kg.

Consider `C=CCN1CC[C@]23c4c5ccc(O)c4O[C@H]2[C@H](N2C(=O)c4ccc(F)cc4C2=O)CC[C@@]3(O)[C@H]1C5` [Compound 7, N-(17-allyl-4,5α-epoxy-3,14-dihydroxymorphinan-6β-yl)-4-fluorophthalimide.tartaric acid salt], for which the ED50 stood at 0.033 mg/kg.

On to `O=C1c2ccc(F)cc2C(=O)N1[C@@H]1CC[C@@]2(O)[C@H]3Cc4ccc(O)c5c4[C@@]2(CCN3CC2CC2)[C@H]1O5` [Compound 13, N-(17-cyclopropylmethyl-4,5α-epoxy-3,14-dihydroxy-morphinan-6β-yl)-4-fluorophthalimide.tartaric acid salt], for which the ED50 worked out at 0.037 mg/kg.

As to `C=CCN1CC[C@]23c4c5ccc(O)c4O[C@H]2[C@@H](N2C(=O)c4cccc(F)c4C2=O)CC[C@@]3(O)[C@H]1C5` [Compound 8, N-(17-allyl-4,5α-epoxy-3,14-dihydroxy-morphinan-6α-yl)-3-fluorophthal-imide.tartaric acid salt], the ED50 is 0.03 mg/kg.

For the compound `Cc1ccc2c(c1)C(=O)N([C@@H]1CC[C@@]3(O)[C@H]4Cc5ccc(O)c6c5[C@@]3(CCN4CC3CC3)[C@H]1O6)C2=O` [Compound 11, N-(17-cyclopropylmethyl-4,5α-epoxy-3,14-dihydroxy-morphinan-6β-yl)-4-methylphthalimide.hydrochloric acid salt], the ED50 is 0.045 mg/kg.

As for `O=C1c2ccccc2CN1[C@@H]1CC[C@@]2(O)[C@H]3Cc4ccc(O)c5c4[C@@]2(CCN3CC2CC2)[C@H]1O5` [Compound 5, 2-(17-cyclopropylmethyl-4,5α-epoxy-3,14-dihydroxy-morphinan-6β-yl)-2,3-dihydroisoindol-1-one.tartaric acid salt], the median effective dose (ED50) came to 0.071 mg/kg.

For the compound `Cl.O=C1CCCN1[C@H]1CC[C@@]2(O)[C@H]3Cc4ccc(O)c5c4[C@@]2(CCN3CC2CC2)[C@H]1O5` [Compound 2, 1-(17-cyclopropylmethyl-4,5α-epoxy-3,14-dihydroxy-morphinan-6α-yl)pyrrolidine-2-one-hydrochloric acid salt], the ED50 is 0.95 mg/kg.

`O=C1C(Cc2ccccc2)CCN1[C@@H]1CC[C@@]2(O)[C@H]3Cc4ccc(O)c5c4[C@@]2(CCN3CC2CC2)[C@H]1O5` (stereo partly drawn) [Compound 3, 1-(17-cyclopropylmethyl-4,5α-epoxy-3,14-dihydroxy-morphinan-6β-yl)-3-benzyl-pyrrolidine-2-one.tartaric acid salt]: the ED50 worked out at 0.28 mg/kg.

Turning to `O=C1c2ccccc2C(=O)N1[C@@H]1CC[C@@]2(O)[C@H]3Cc4ccc(O)c5c4[C@@]2(CCN3CC2CC2)[C@H]1O5` [Compound 10, N-(17-cyclopropylmethyl-4,5α-epoxy-3,14-dihydroxymorphinan-6β-yl)-phthalimide.hydrochloric acid salt], the ED50 turned out to be 0.031 mg/kg.

The assay is the same for the next values; noted with them: subcutaneous, 15 minutes before i.p. 0.6% acetic acid; dosage to halve the number of writhing response.
Take `O=C(O)C(O)C(O)C(=O)O.O=C1c2ccccc2C(=O)N1[C@@H]1CC[C@@]2(O)[C@H]3Cc4ccc(O)c5c4[C@@]2(CCN3CC2CC2)[C@H]1O5` [Compound 18, N-(17-cyclopropylmethyl-4,5α-epoxy-3,14-dihydroxy-morphinan-6β-yl)-phthalimide.tartaric acid salt]: the ED50 stood at 0.019 mg/kg.
